Where two headings read alike, the source gives them in different places. Residues, ends and D or L forms follow the SMILES beside them. No end group written: not given here. *: point of attachment. NHhexadecyl = CCCCCCCCCCCCCCCCN*
Assays:
E. coli = test: Live/dead SYTO 9/PI fluorescence imaging; format: cell-based, Escherichia coli; conditions: mid-log phase E. coli, 2× MIC; red = damaged membranes
P. aeruginosa (PA01) [1] = format: cell-based, Pseudomonas aeruginosa; conditions: for MIC, Control: control without serum or trypsin; for MIC, Trypsin: peptide incubated with 5 µM SGMT trypsin in 50 mM Tris-HCl, 1 mM CaCl2, pH 7.6, 24 h at 37 °C before MIC; for MIC, 20% human serum: peptide incubated with 20% human serum 24 h at 37 °C before MIC; for MIC, 50% human serum: peptide incubated with 50% human serum 24 h at 37 °C before MIC
Experimental: (§1) The MIC of arginine-based peptides was assessed using the microbroth dilution approach. Our in vitro screening included a panel of Gram-negative bacteria, Escherichia coli (ATCC 25922 and enterohaemorrhagic O157:H7) and Pseudomonas aeruginosa (PA01 and the drug-resistant strain NCTC 13437), and Gram-positive bacteria (Staphylococcus aureus ATCC 12600). Five-millilitre overnight cultures in Lysogeny broth, prepared from single isolated colonies, were diluted to 5×10^6 c.f.u. ml^−1 mid-log phase in Mueller–Hinton (MH) broth. Next, peptide concentrations (0 to 1 mM) were serially diluted twofold in 96-well plates and incubated overnight at 37 °C with the tested bacterial strains. In each case, the MIC was determined as the lowest peptide concentration at which no detectable bacterial growth was observed, employing an absorbance-based assay using a Tecan Spark® multimode plate reader. Subsequently, 10 µl aliquots from each peptide dilution were transferred to MH agar (1.5%) plates to determine the minimum bactericidal concentration (MBC) which was assessed by establishing at which concentration no visible growth of bacteria (assessed via colony formation) on the plate was observed.
(§2) The antimicrobial activity and structural stability of arginine-rich peptides were evaluated in the presence of human serum (20% and 50 %) and 5 µM Sequencing Grade Modified Trypsin (SGMT, Promega). Briefly, fresh human blood was collected in EDTA tubes and allowed to clot at room temperature for 1 h. Serum was then collected following centrifugation at 2,000 r.p.m. for 10 min at 4 °C. Peptides were incubated with 20%, 50% human serum and 5 µM SGMT in 50 mM Tris-HCl buffer (1 mM CaCl₂, pH 7.6) for 24 h at 37 °C. After the incubation period, the solutions were further incubated with E. coli (ATCC 25922 and O157:H7), P. aeruginosa (PA01, NCTC13437) and S. aureus (ATCC12600), and the MIC was assessed as described in the ‘Antibacterial assessment’ section. Additionally, the samples were analysed using electrospray ionization MS to monitor structural changes based on the molecular weight of the peptides.

E. coli (25922) = format: cell-based, Escherichia coli; conditions: for MIC, Control: control without serum or trypsin; for MIC, Trypsin: peptide incubated with 5 µM SGMT trypsin in 50 mM Tris-HCl, 1 mM CaCl2, pH 7.6, 24 h at 37 °C before MIC; for MIC, 20% human serum: peptide incubated with 20% human serum 24 h at 37 °C before MIC; for MIC, 50% human serum: peptide incubated with 50% human serum 24 h at 37 °C before MIC
Experimental: as §1, §2

[2] = tested on: P. aeruginosa (NCTC13437); format: cell-based, Pseudomonas aeruginosa; conditions: P. aeruginosa NCTC13437 (drug-resistant)
Experimental: as §1

P. aeruginosa (PA01) [3] = format: cell-based, Pseudomonas aeruginosa; conditions: for MIC: 24 h
Experimental: as §1

E. coli (O157:H7) = format: cell-based, Escherichia coli; conditions: for MBC: 10 µl aliquots plated on MH agar, no visible colonies; for MIC: MH broth, 5×10^6 cells, 24 h, 37 °C, absorbance 600 nm, triplicate
Experimental: as §1

E. coli (ATCC25922) = format: cell-based, Escherichia coli; conditions: E. coli ATCC25922; for MBC: 10 µl aliquots plated on MH agar, no visible colonies; for MIC: MH broth, 5×10^6 cells, 24 h, 37 °C, absorbance 600 nm, triplicate
Experimental: as §1

S. aureus (ATCC12600) = format: cell-based, Staphylococcus aureus
Experimental: as §1

S. aureus (12600) = format: cell-based, Staphylococcus aureus; conditions: for MIC, Control: control without serum or trypsin; for MIC, Trypsin: peptide incubated with 5 µM SGMT trypsin in 50 mM Tris-HCl, 1 mM CaCl2, pH 7.6, 24 h at 37 °C before MIC; for MIC, 20% human serum: peptide incubated with 20% human serum 24 h at 37 °C before MIC; for MIC, 50% human serum: peptide incubated with 50% human serum 24 h at 37 °C before MIC
Experimental: as §1, §2

L929 fibroblasts = format: cell-based; conditions: 24 h
Experimental: The toxicity screening of arginine-rich peptides was conducted in two cell types: human red blood cells (hRBCs) and L929 fibroblasts. The peptide-induced lysis of hRBCs was estimated based on the release of haemoglobin into solution, following a previously established protocol with slight modifications. Briefly, fresh human blood was collected from a healthy donor. To isolate hRBCs from plasma, the blood was centrifuged at 2,000 r.p.m. for 10 min at 4 °C, and the cells were carefully resuspended in 0.5% suspension buffer. After, they were added to a 96-well plate containing various concentrations of peptides diluted in PBS. After incubation for 1 h at 37 °C, cells were spun at 2,000 r.p.m. for 10 min at 4 °C to pellet cell debris and the supernatant collected and measured at OD414. The data was calculated as the % haemolysis relative to the positive control (cells treated with 1% Triton X-100). The toxicity screening using L929 fibroblasts was based on the metabolic activity of cells using an MTS colourimetric assay (Fig. S2). […] The absorbance was measured at OD490 using a Tecan Spark multimode plate reader. The quantification of viable cells was expressed as a % and determined by comparing peptide-treated groups with control cells grown in their absence. […]

E. coli ATCC 25922 = test: Cytoplasmic membrane depolarization, DiSC3(5); format: cell-based, Escherichia coli; conditions: peptide at 2× MIC or 1,000 µM, positive control Triton X-100
Experimental: The dye 3,3′-dipropylthiadicarbocyanine iodide DiSC3(5) was employed to evaluate perturbation of the bacterial membrane by our designed arginine-rich peptides. For this, a black 96-well microtiter plate containing 150 µl E. coli cells (OD600=0.5) in MH broth per well was incubated with 0.5 µM DiSC3(5) in 5 mM HEPES buffer (pH 7.4, supplemented with 5 mM glucose and 0.1 M KCl) for 15 min to allow for fluorescence quenching. Then, 2× MIC or 1 mM peptide was added, and changes in fluorescence were monitored in real-time (λex=622 nm, λem=670 nm) using a microplate reader.

[4] = tested on: Gram-positive and Gram-negative bacteria; format: cell-based; conditions: span of MIC and MBC against both Gram-positive and Gram-negative bacteria, Table 2
Experimental: as §1

[5] = biological target: T1, Sequencing Grade Modified Trypsin (Sus scrofa, UniProt P00761); test: Stability with trypsin by LC-MS; format: in vitro ADME; conditions: 5 µM SGMT trypsin, 50 mM Tris-HCl, 1 mM CaCl2, pH 7.6, 24 h, 37 °C; read-out LC-MS (ESI)
T1 construct: purchased Promega
T1 sequence (P00761 9-231): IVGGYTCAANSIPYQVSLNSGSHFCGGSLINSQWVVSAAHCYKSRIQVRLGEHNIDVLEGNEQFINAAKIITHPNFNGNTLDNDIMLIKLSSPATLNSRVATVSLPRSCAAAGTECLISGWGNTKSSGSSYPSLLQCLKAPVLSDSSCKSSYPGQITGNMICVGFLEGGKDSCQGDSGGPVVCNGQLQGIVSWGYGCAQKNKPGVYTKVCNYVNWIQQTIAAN
Experimental: as §2

[6] = P. aeruginosa PA01, 10 µl aliquots plated on MH agar, no visible colonies
[7] = P. aeruginosa PA01, MH broth, 5×10^6 cells, 37 °C, absorbance 600 nm, triplicate
[8] = S. aureus ATCC12600, 10 µl aliquots plated on MH agar, no visible colonies
[9] = S. aureus ATCC12600, MH broth, 5×10^6 cells, 24 h, 37 °C, absorbance 600 nm, triplicate

Compound: Polymyxin B [reference compound]
- Membrane damage, live/dead SYTO 9/PI staining (E. coli): high presence of red-stained cells indicative of damaged membranes
- MIC, Control (P. aeruginosa (PA01) [1]): 2.4 µM
- MIC, Trypsin (P. aeruginosa (PA01) [1]): 2.4 µM
- MIC, 20% human serum (P. aeruginosa (PA01) [1]): 2.4 µM
- MIC, 50% human serum (P. aeruginosa (PA01) [1]): 2.4 µM
- MIC, Control (E. coli (25922)): 2.8 µM
- MIC, Trypsin (E. coli (25922)): 2.4 µM
- MIC, 20% human serum (E. coli (25922)): 2.8 µM
- MIC, 50% human serum (E. coli (25922)): 2.4 µM
- MBC ([2]; 10 µl aliquots plated on MH agar, no visible colonies): 38.4 µM
- MIC ([2]; MH broth, 5×10^6 cells, 24 h, 37 °C, absorbance 600 nm, triplicate): 9.6 µM
- MBC (P. aeruginosa (PA01) [3]; [6]): 4.8 µM
- MIC (P. aeruginosa (PA01) [3]; [7]): 2.4 µM
- MBC (E. coli (O157:H7)): 4.8 µM
- MIC (E. coli (O157:H7)): 4.8 µM
- MBC (E. coli (ATCC25922)): 4.8 µM
- MIC (E. coli (ATCC25922)): 2.8 µM
- MBC (S. aureus (ATCC12600); [8]): > 76.8 µM
- MIC (S. aureus (ATCC12600); [9]): > 76.8 µM
- MIC, Control (S. aureus (12600)): >76.8 µM
- MIC, Trypsin (S. aureus (12600)): >76.8 µM
- MIC, 20% human serum (S. aureus (12600)): >76.8 µM
- MIC, 50% human serum (S. aureus (12600)): >76.8 µM

Compound: CCCCCCCCCCCCCCCCNC(=O)[C@H](Cc1ccccc1)NC(=O)[C@H](Cc1ccccc1)NC(=O)[C@H](Cc1ccccc1)NC(=O)[C@H](Cc1ccccc1)NC(=O)[C@H](CCCNC(=N)N)NC(=O)[C@H](CCCNC(=N)N)NC(=O)[C@H](CCCNC(=N)N)NC(=O)[C@@H](N)CCCNC(=N)N [Peptide R4F4-C16] (H-RRRRFFFF-NHhexadecyl; N-terminus and C-terminus assumed)
- MIC, Control (P. aeruginosa (PA01) [1]): >1,000 μM
- MIC, Trypsin (P. aeruginosa (PA01) [1]): >1,000 μM
- MIC, 20% human serum (P. aeruginosa (PA01) [1]): >1,000 μM
- MIC, 50% human serum (P. aeruginosa (PA01) [1]): >1,000 μM
- EC50 (L929 fibroblasts): 70 µM
- MIC, Control (E. coli (25922)): 1,000 μM
- MIC, Trypsin (E. coli (25922)): >1,000 μM
- MIC, 20% human serum (E. coli (25922)): 1,000 μM
- MIC, 50% human serum (E. coli (25922)): >1,000 μM
- MBC (P. aeruginosa (PA01) [3]; [6]): >1,000/>1,000 μM
- MIC (P. aeruginosa (PA01) [3]; [7]): >1,000/>1,000 μM
- MBC (E. coli (O157:H7)): >1,000/>1,000 μM
- MIC (E. coli (O157:H7)): >1,000/>1,000 μM
- MBC (E. coli (ATCC25922)): 1,000/>1,000 μM
- MIC (E. coli (ATCC25922)): 1,000/>1,000 μM
- Cytoplasmic membrane depolarization, DiSC3(5) fluorescence (E. coli ATCC 25922): Greater effects
- MBC (S. aureus (ATCC12600); [8]): >1,000/>1,000 μM
- MIC (S. aureus (ATCC12600); [9]): >1,000/>1,000 μM
- MIC and MBC values over all tested strains [4]: > 1,000 µM
- MIC, Control (S. aureus (12600)): >1,000 μM
- MIC, Trypsin (S. aureus (12600)): >1,000 μM
- MIC, 20% human serum (S. aureus (12600)): >1,000 μM
- MIC, 50% human serum (S. aureus (12600)): >1,000 μM

Compound: RRRRFFFF [Peptide R4F4]
- EC50 (L929 fibroblasts): 481 µM
- MBC (P. aeruginosa (PA01) [3]): 250 µM
- MIC (P. aeruginosa (PA01) [3]): 125 µM
- Stability with trypsin (LC chromatogram and mass spectrum) [5]: degraded into smaller fragments
- MBC (S. aureus (ATCC12600); ATCC12600): 250 µM
- MIC (S. aureus (ATCC12600); ATCC12600, 24 h): 125 µM
